The NIST ThermoML archive (doi:10.1021/je4003916)

Test: xn = mol fraction of the nth substance listed
Details: 101 kPa, Liquid; for mass density: Vibrating tube method

COC(=O)CCCCC(=O)OC [dimethyl 1,6-hexanedioate] + CCCCO
viscosity [mPa·s], stabinger viscometer
Details	x1 = 0.0999	x1 = 0.2004	x1 = 0.2999	x1 = 0.4003	x1 = 0.4999	x1 = 0.6007	x1 = 0.6996	x1 = 0.7994	x1 = 0.8991	x1 = 1
288.15 K	2.635	2.426	2.384	2.422	2.519	2.66	2.884	3.08	3.379	3.751
293.15 K	2.322	2.147	2.114	2.149	2.237	2.361	2.556	2.723	2.977	3.289
298.15 K	2.057	1.911	1.886	1.92	2.003	2.11	2.287	2.425	2.649	2.91
303.15 K	1.837	1.716	1.699	1.732	1.805	1.902	2.06	2.183	2.374	2.604
308.15 K	1.646	1.546	1.536	1.569	1.636	1.724	1.868	1.975	2.144	2.343
313.15 K	1.481	1.4	1.396	1.428	1.491	1.572	1.704	1.797	1.947	2.121
318.15 K	1.338	1.272	1.273	1.306	1.365	1.44	1.562	1.645	1.778	1.933
323.15 K	1.229	1.176	1.179	1.214	1.268	1.339	1.456	1.528	1.648	1.79

C1CCOC1 [tetrahydrofuran] + CCCCO
Details	mass density [kg/m3]	viscosity [mPa·s]
288.15 K, x1 = 0.1001	820.7	2.377
288.15 K, x1 = 0.2003	828.11	1.788
288.15 K, x1 = 0.3	835.61	1.416
288.15 K, x1 = 0.4003	843.28	1.15
288.15 K, x1 = 0.5	851.03	0.962
288.15 K, x1 = 0.6001	858.98	0.836
288.15 K, x1 = 0.7003	867.19	0.723
288.15 K, x1 = 0.8006	875.64	0.642
288.15 K, x1 = 0.9002	884.34	0.578
288.15 K, x1 = 1	893.29	0.522
293.15 K, x1 = 0.1001	816.75	2.111
293.15 K, x1 = 0.2003	823.99	1.612
293.15 K, x1 = 0.3	831.34	1.292
293.15 K, x1 = 0.4003	838.84	1.061
293.15 K, x1 = 0.5	846.43	0.895
293.15 K, x1 = 0.6001	854.21	0.785
293.15 K, x1 = 0.7003	862.27	0.683
293.15 K, x1 = 0.8006	870.54	0.61
293.15 K, x1 = 0.9002	879.08	0.555
293.15 K, x1 = 1	887.86	0.502
298.15 K, x1 = 0.1001	812.77	1.882
298.15 K, x1 = 0.2003	819.86	1.46
298.15 K, x1 = 0.3	827.04	1.184
298.15 K, x1 = 0.4003	834.38	0.979
298.15 K, x1 = 0.5	841.8	0.834
298.15 K, x1 = 0.6001	849.43	0.736
298.15 K, x1 = 0.7003	857.31	0.645
298.15 K, x1 = 0.8006	865.41	0.579
298.15 K, x1 = 0.9002	873.78	0.528
298.15 K, x1 = 1	882.4	0.48
303.15 K, x1 = 0.1001	808.76	1.687
303.15 K, x1 = 0.2003	815.69	1.331
303.15 K, x1 = 0.3	822.71	1.087
303.15 K, x1 = 0.4003	829.89	0.908
303.15 K, x1 = 0.5	837.15	0.779
303.15 K, x1 = 0.6001	844.61	0.692
303.15 K, x1 = 0.7003	852.32	0.61
303.15 K, x1 = 0.8006	860.26	0.55
303.15 K, x1 = 0.9002	868.46	0.502
303.15 K, x1 = 1	876.91	0.459
308.15 K, x1 = 0.1001	804.73	1.517
308.15 K, x1 = 0.2003	811.49	1.215
308.15 K, x1 = 0.3	818.36	1
308.15 K, x1 = 0.4003	825.36	0.843
308.15 K, x1 = 0.5	832.46	0.728
308.15 K, x1 = 0.6001	839.75	0.652
308.15 K, x1 = 0.7003	847.3	0.576
308.15 K, x1 = 0.8006	855.06	0.521
308.15 K, x1 = 0.9002	863.09	0.478
308.15 K, x1 = 1	871.38	0.44
313.15 K, x1 = 0.1001	800.66	1.368
313.15 K, x1 = 0.2003	807.26	1.111
313.15 K, x1 = 0.3	813.96	0.922
313.15 K, x1 = 0.4003	820.81	0.782
313.15 K, x1 = 0.5	827.74	0.681
313.15 K, x1 = 0.6001	834.86	0.608
313.15 K, x1 = 0.7003	842.24	0.543
313.15 K, x1 = 0.8006	849.83	0.494
313.15 K, x1 = 0.9002	857.7	0.454
313.15 K, x1 = 1	865.81	0.418
318.15 K, x1 = 0.1001	796.55	1.238
318.15 K, x1 = 0.2003	802.99	1.019
318.15 K, x1 = 0.3	809.53	0.852
318.15 K, x1 = 0.4003	816.21	0.727
318.15 K, x1 = 0.5	822.98	0.637
318.15 K, x1 = 0.6001	829.93	0.571
318.15 K, x1 = 0.7003	837.14	0.513
318.15 K, x1 = 0.8006	844.56	0.466
318.15 K, x1 = 0.9002	852.25	0.428
318.15 K, x1 = 1	860.2	0.396
323.15 K, x1 = 0.1001	792.4	1.139
323.15 K, x1 = 0.2003	798.67	0.949
323.15 K, x1 = 0.3	805.05	0.795
323.15 K, x1 = 0.4003	811.57	0.683
323.15 K, x1 = 0.5	818.17	0.599
323.15 K, x1 = 0.6001	824.96	0.546
323.15 K, x1 = 0.7003	832	0.487
323.15 K, x1 = 0.8006	839.25	0.444
323.15 K, x1 = 0.9002	846.77	0.41
323.15 K, x1 = 1	854.55	0.384
